Experimental data: ChEMBL document CHEMBL4270599, “Synthesis of a 3'-C-ethynyl-β-d-ribofuranose purine nucleoside library: Discovery of C7-deazapurine analogs as potent antiproliferative nucleosides” (Eur J Med Chem, 2018)

How the values were obtained:
Format in all cases: functional
HL-60(TB) [1] = test: Cytotoxicity against human HL-60(TB) cells after 48 hrs by SRB assay; settings: HL-60, 48 h; for CC50: read-out: pLC50 (the source's name) (converted)
HOP-62 [2] = test: Cytotoxicity against human HOP62 cells after 48 hrs by SRB assay; settings: HOP-62, 48 h
HCT-116 [3] = test: Cytotoxicity against human HCT116 cells after 48 hrs by SRB assay; settings: HCT-116, 48 h; for CC50: read-out: pLC50 (the source's name) (converted)
PC-3 [4] = test: Cytotoxicity against human PC3 cells after 48 hrs by SRB assay; settings: PC-3, 48 h
MCF7 [5] = test: Cytotoxicity against human MCF7 cells after 48 hrs by SRB assay; settings: MCF7, 48 h; for CC50: read-out: pLC50 (the source's name) (converted)
Hs-578T [6] = test: Cytotoxicity against human Hs 578T cells after 48 hrs by SRB assay
T47D [7] = test: Cytotoxicity against human T47D cells after 48 hrs by SRB assay; settings: for GI50: read-out: pGI50 (converted); for CC50: read-out: pLC50 (the source's name) (converted)
HL-60(TB) [8] = test: Growth inhibition of human HL-60(TB) cells assessed as cell growth at 10^-8 M incubated for 48 hrs by sulforhodamine B assay relative to control; settings: HL-60, 48 h, read-out: Activity
HOP-62 [9] = test: Growth inhibition of human HOP62 cells assessed as cell growth at 10^-8 M incubated for 48 hrs by sulforhodamine B assay relative to control; settings: HOP-62, 48 h, read-out: Activity
NCI-H226 = test: Growth inhibition of human NCI-H226 cells assessed as cell growth at 10^-8 M incubated for 48 hrs by sulforhodamine B assay relative to control; settings: NCI-H226, 48 h, read-out: Activity
IGROV-1 = test: Growth inhibition of human IGROV1 cells assessed as cell growth at 10^-8 M incubated for 48 hrs by sulforhodamine B assay relative to control; settings: IGROV-1, 48 h, read-out: Activity
OVCAR-4 = test: Growth inhibition of human OVCAR4 cells assessed as cell growth at 10^-8 M incubated for 48 hrs by sulforhodamine B assay relative to control; settings: OVCAR-4, 48 h, read-out: Activity
OVCAR-8 = test: Growth inhibition of human OVCAR8 cells assessed as cell growth at 10^-8 M incubated for 48 hrs by sulforhodamine B assay relative to control; settings: OVCAR-8, 48 h, read-out: Activity
A498 = test: Growth inhibition of human A498 cells assessed as cell growth at 10^-8 M incubated for 48 hrs by sulforhodamine B assay relative to control; settings: A498, 48 h, read-out: Activity
BT-549 = test: Growth inhibition of human BT549 cells assessed as cell growth at 10^-8 M incubated for 48 hrs by sulforhodamine B assay relative to control; settings: BT-549, 48 h, read-out: Activity
SF-295 = test: Growth inhibition of human SF295 cells assessed as cell growth at 10^-7 M incubated for 48 hrs by sulforhodamine B assay relative to control; settings: SF-295, 48 h, read-out: Activity
MDA-MB-435 = test: Growth inhibition of human MDA-MB-435 cells assessed as cell growth at 10^-7 M incubated for 48 hrs by sulforhodamine B assay relative to control; settings: MDA-MB-435, 48 h, read-out: Activity
RXF 393 = test: Growth inhibition of human RXF393 cells assessed as cell growth at 10^-7 M incubated for 48 hrs by sulforhodamine B assay relative to control; settings: RXF 393, 48 h, read-out: Activity
T47D [10] = test: Growth inhibition of human T47D cells assessed as cell growth at 10^-7 M incubated for 48 hrs by sulforhodamine B assay relative to control; settings: read-out: Activity
NCI-H460 = test: Growth inhibition of human NCI-H460 cells assessed as cell growth at 10^-6 M incubated for 48 hrs by sulforhodamine B assay relative to control; settings: NCI-H460, 48 h, read-out: Activity
HCC 2998 = test: Growth inhibition of human HCC2998 cells assessed as cell growth at 10^-6 M incubated for 48 hrs by sulforhodamine B assay relative to control; settings: HCC 2998, 48 h, read-out: Activity
SNB-19 = test: Growth inhibition of human SNB19 cells assessed as cell growth at 10^-6 M incubated for 48 hrs by sulforhodamine B assay relative to control; settings: SNB-19, 48 h, read-out: Activity
SK-MEL-28 = test: Growth inhibition of human SK-MEL-28 cells assessed as cell growth at 10^-6 M incubated for 48 hrs by sulforhodamine B assay relative to control; settings: SK-MEL-28, 48 h, read-out: Activity
ACHN = test: Growth inhibition of human ACHN cells assessed as cell growth at 10^-6 M incubated for 48 hrs by sulforhodamine B assay relative to control; settings: read-out: Activity
Hs-578T [11] = test: Growth inhibition of human Hs 578T cells assessed as cell growth at 10^-6 M incubated for 48 hrs by sulforhodamine B assay relative to control; settings: read-out: Activity
K562 = test: Growth inhibition of human K562 cells assessed as cell growth at 10^-5 M incubated for 48 hrs by sulforhodamine B assay relative to control; settings: K562, 48 h, read-out: Activity
NCI-H23 = test: Growth inhibition of human NCI-H23 cells assessed as cell growth at 10^-5 M incubated for 48 hrs by sulforhodamine B assay relative to control; settings: NCI-H23, 48 h, read-out: Activity
HCT-116 [12] = test: Growth inhibition of human HCT116 cells assessed as cell growth at 10^-5 M incubated for 48 hrs by sulforhodamine B assay relative to control; settings: HCT-116, 48 h, read-out: Activity
M14 = test: Growth inhibition of human M14 cells assessed as cell growth at 10^-5 M incubated for 48 hrs by sulforhodamine B assay relative to control; settings: M14, 48 h, read-out: Activity
PC-3 [13] = test: Growth inhibition of human PC3 cells assessed as cell growth at 10^-4 M incubated for 48 hrs by sulforhodamine B assay relative to control; settings: PC-3, 48 h, read-out: Activity
MCF7 [14] = test: Growth inhibition of human MCF7 cells assessed as cell growth at 10^-4 M incubated for 48 hrs by sulforhodamine B assay relative to control; settings: MCF7, 48 h, read-out: Activity
UACC-62 = test: Growth inhibition of human UACC62 cells assessed as cell growth at 10^-6 M incubated for 48 hrs by sulforhodamine B assay relative to control; settings: UACC-62, 48 h, read-out: Activity
[15] = read-out: pLC50 (the source's name) (converted)
[16] = read-out: LC50 (the source's name)

C#C[C@@]1(O)[C@@H](CO)O[C@@H](n2ccc3c(N)ncnc32)[C@@H]1O
TGI (HL-60(TB) [1]; read-out: TGI): 5.49 µM | GI50 (HL-60(TB) [1]; read-out: pGI50 (converted)): 1.58 µM | CC50 (HL-60(TB) [1]): > 100 µM | TGI (HL-60(TB) [1]; read-out: pTGI (converted)): 5.5 µM | TGI (HOP-62 [2]; read-out: TGI): 7.91 µM | GI50 (HOP-62 [2]; read-out: pGI50 (converted)): 2.04 µM | CC50 (HOP-62 [2]; [15]): > 100 µM | TGI (HOP-62 [2]; read-out: pTGI (converted)): 7.94 µM | TGI (HCT-116 [3]; read-out: TGI): 10.8 µM | GI50 (HCT-116 [3]; read-out: pGI50 (converted)): 0.589 µM | CC50 (HCT-116 [3]): 85.1 µM | TGI (HCT-116 [3]; read-out: pTGI (converted)): 10.7 µM | TGI (PC-3 [4]; read-out: TGI): 3.54 µM | GI50 (PC-3 [4]; read-out: pGI50 (converted)): 0.813 µM | CC50 (PC-3 [4]; [15]): 33.1 µM | TGI (PC-3 [4]; read-out: pTGI (converted)): 3.55 µM | TGI (MCF7 [5]; read-out: TGI): 5.66 µM | GI50 (MCF7 [5]; read-out: pGI50 (converted)): 0.24 µM | CC50 (MCF7 [5]): 85.1 µM | TGI (MCF7 [5]; read-out: pTGI (converted)): 5.62 µM | TGI (Hs-578T [6]; read-out: TGI): > 100 µM | GI50 (Hs-578T [6]; read-out: pGI50 (converted)): 4.68 µM | CC50 (Hs-578T [6]; [15]): > 100 µM | TGI (Hs-578T [6]; read-out: pTGI): > 100 µM | TGI (T47D [7]; read-out: TGI): 2.14 µM | GI50 (T47D [7]): 0.447 µM | CC50 (T47D [7]): 7.59 µM | TGI (T47D [7]; read-out: pTGI (converted)): 2.14 µM | growth at 0.01 µM (HL-60(TB) [8]): 97% | growth at 0.01 µM (HOP-62 [9]): 87% | growth at 0.01 µM (NCI-H226): 94% | growth at 0.01 µM (IGROV-1): 101% | growth at 0.01 µM (OVCAR-4): 93% | growth at 0.01 µM (OVCAR-8): 103% | growth at 0.01 µM (A498): 85% | growth at 0.01 µM (BT-549): 89% | growth at 0.1 µM (SF-295): 98% | growth at 0.1 µM (MDA-MB-435): 99% | growth at 0.1 µM (RXF 393): 111% | growth at 0.1 µM (T47D [10]): 86% | growth at 1 µM (NCI-H460): 30% | growth at 1 µM (HCC 2998): 74% | growth at 1 µM (SNB-19): 67% | growth at 1 µM (SK-MEL-28): 94% | growth at 1 µM (ACHN): 33% | growth at 1 µM (Hs-578T [11]): 114% | growth at 10 µM (K562): 6% | growth at 10 µM (NCI-H23): -32% | growth at 10 µM (HCT-116 [12]): 2% | growth at 10 µM (M14): -80% | growth at 100 µM (PC-3 [13]): -62% | growth at 100 µM (MCF7 [14]): -53% | growth at 1 µM (UACC-62): 82%

C#C[C@@]1(O)[C@@H](CO)O[C@@H](n2cc(I)c3c(N)ncnc32)[C@@H]1O
GI50 (HL-60(TB) [1]; read-out: GI50): 0.0315 to 0.0678 µM | TGI (HL-60(TB) [1]; read-out: TGI): 0.2 to 0.343 µM | CC50 (HL-60(TB) [1]): > 100 µM | GI50 (HOP-62 [2]; read-out: GI50): 0.367 to 1.52 µM | CC50 (HOP-62 [2]; [16]): > 100 µM | TGI (HOP-62 [2]; read-out: TGI): 6.28 to 12 µM | GI50 (HCT-116 [3]; read-out: GI50): 0.0344 to 0.0547 µM | TGI (HCT-116 [3]; read-out: TGI): > 100 µM | CC50 (HCT-116 [3]): > 100 µM | TGI (HCT-116 [3]; read-out: pTGI (converted)): > 100 µM | GI50 (PC-3 [4]; read-out: GI50): 0.0663 to 0.0861 µM | CC50 (PC-3 [4]; [16]): > 100 µM | TGI (PC-3 [4]; read-out: TGI): 14.5 to 100 µM | TGI (MCF7 [5]; read-out: TGI): > 100 µM | CC50 (MCF7 [5]): > 100 µM | TGI (MCF7 [5]; read-out: pTGI (converted)): > 100 µM | GI50 (Hs-578T [6]; read-out: GI50): 0.55 to 1.12 µM | CC50 (Hs-578T [6]; [16]): > 100 µM | TGI (Hs-578T [6]; read-out: TGI): 7.12 to 8.62 µM | TGI (T47D [7]; read-out: TGI): 0.051 to 0.315 µM | GI50 (T47D [7]): < 0.01 µM | CC50 (T47D [7]): > 100 µM | growth at 0.01 µM (HL-60(TB) [8]): 83% | growth at 0.01 µM (HOP-62 [9]): 83 to 89% | growth at 0.01 µM (NCI-H226): 84 to 97% | growth at 0.01 µM (IGROV-1): 39 to 60% | growth at 0.01 µM (OVCAR-4): 90 to 104% | growth at 0.01 µM (OVCAR-8): 75 to 89% | growth at 0.01 µM (A498): 88 to 102% | growth at 0.01 µM (BT-549): 86 to 96% | growth at 0.1 µM (SF-295): 63 to 76% | growth at 0.1 µM (MDA-MB-435): 66 to 73% | growth at 0.1 µM (RXF 393): 82 to 90% | growth at 1 µM (NCI-H460): 6 to 9% | growth at 1 µM (HCC 2998): 11 to 16% | growth at 1 µM (SNB-19): 8 to 26% | growth at 1 µM (SK-MEL-28): 62 to 78% | growth at 1 µM (ACHN): 28% | growth at 1 µM (Hs-578T [11]): 38 to 53% | growth at 10 µM (K562): 7% | growth at 10 µM (NCI-H23): -16% | growth at 10 µM (HCT-116 [12]): 3% | growth at 100 µM (MCF7 [14]): 1 to 3% | growth at 1 µM (UACC-62): 40 to 43%
